Data from PMC4105567, “Aurora Kinases as Druggable Targets in Pediatric Leukemia: Heterogeneity in Target Modulation Activities and Cytotoxicity by Diverse Novel Therapeutic Agents” (PLoS ONE, 2014).

Experiments:
C1 B-ALL cell line = assay: Cytotoxicity assay, C1; format: cell-based, human; settings: Homo sapiens, 96 h, four days in culture, Alamar blue assay or automated microscopy, ± SD, three experiments
Experimental: (§1) Cell lines were cultured in Opti-MEM medium (Gibco, Life Technologies Corporation, Burlington, Ontario) supplemented with 10% heat inactivated fetal bovine serum (FBS) (Gibco), 100 units/ml penicillin and 100 units/ml streptomycin (Gibco) and 0.05 mM 2-mercaptoethanol (Sigma-Aldrich, Oakville, Ontario) in T25 flasks (Nalge Nunc, Rochester, New York) or T75 flasks (Corning Incorporated, Corning, New York). All cell cultures were maintained at 37°C in a humidified incubator with 5% CO2.
(§2) For cytotoxicity profiling of Aurora kinase inhibitors against leukemia cell lines, inhibitors or vehicle control (DMSO, Sigma-Aldrich) were diluted in 100 µl of Opti-MEM per well in 96 well plates (Grenier Bio-One, Monroe, North Carolina) in triplicate at final concentrations ranging from 1×10^−6 to 10 µM. 1×10^4 cells per well were seeded and plates were incubated for 4 days. Following incubation for 4 days, cell survival was quantified by Alamar blue assay (Invitrogen) or automated inverted microscopy using the Celigo Cell Cytometer (Cyntellect, San Diego, California). […] During this period of incubation, the absorbance at 570–620 nm was measured (Opsys MR Plate Reader, Dynex Technologies, Chantilly, Virginia) at various time points, depending on the cell line or sample. Percent survival was calculated by comparing the absorbance ratio of the test well to the control well multiplied by 100%, as indicated in the following formula: […]
(§3) For automated inverted microscopy, the number of cells in each well was determined using the direct cell counting application as described previously. Briefly, following adjustment of image acquisition settings for bright-field imaging, the wells containing cells and appropriate dilutions of inhibitors were individually scanned. Based on these images, analysis parameters, including intensity threshold and cell diameter, were modified for optimal inclusion of viable cells in treated and control wells. These parameters were applied for subsequent replicates involving the same leukemia cell line or sample. The percent survival was then calculated as a ratio of the number of cells in treated wells to the number of cells in control wells multiplied by 100%. Given that Aurora kinase inhibitors interfere with cytokinesis, cells that are committed to death may still contain enlarging but intact cytoplasmic content before the eventual loss of cytoplasmic membrane integrity. The accuracy of Alamar blue assay may be, in theory, affected by the timing of these events.

SEM B-ALL cell line = assay: Cytotoxicity assay, SEM; format: cell-based; settings: Homo sapiens, 96 h, four days in culture, Alamar blue assay or automated microscopy, ± SD, three experiments
Experimental: as §1, §2, §3

B1 B-ALL cell line = assay: Cytotoxicity assay, B1; format: cell-based, human; settings: Homo sapiens, 96 h, four days in culture, Alamar blue assay or automated microscopy, ± SD, three experiments
Experimental: as §1, §2, §3

UOCB1 B-ALL cell line = assay: Cytotoxicity assay, UOCB1; format: cell-based, human; settings: Homo sapiens, UoC-B1, 96 h, four days in culture, Alamar blue assay or automated microscopy, ± SD, three experiments
Experimental: as §1, §2, §3

Nalm6 B-ALL cell line = assay: Cytotoxicity assay, Nalm6; format: cell-based, human; settings: Homo sapiens, NALM-6, 96 h, four days in culture, Alamar blue assay or automated microscopy, ± SD, three experiments
Experimental: as §1, §2, §3

KOPN8 B-ALL cell line = assay: Cytotoxicity assay, KOPN8; format: cell-based, human; settings: Homo sapiens, KOPN-8, 96 h, four days in culture, Alamar blue assay or automated microscopy, ± SD, three experiments
Experimental: as §1, §2, §3

Molt-3 T-ALL cell line = assay: Cytotoxicity assay, Molt-3; format: cell-based, human; settings: Homo sapiens, 96 h; T-ALL cell line Molt-3; four days in culture; Alamar blue assay or automated microscopy; ± SD, three experiments
Experimental: as §1, §2, §3

Molm13 AML cell line = assay: Cytotoxicity assay, Molm13; format: cell-based, human; settings: Homo sapiens, MOLM-13, 96 h, four days in culture, Alamar blue assay or automated microscopy, ± SD, three experiments
Experimental: as §1, §2, §3

MV4-11 AML cell line = assay: Cytotoxicity assay, MV4-11; format: cell-based, human; settings: Homo sapiens, 96 h; AML cell line MV4-11; four days in culture; Alamar blue assay or automated microscopy; ± SD, three experiments
Experimental: as §1, §2, §3

TIB-202 AML cell line = assay: Cytotoxicity assay, TIB-202; format: cell-based, human; settings: Homo sapiens, 96 h; AML cell line TIB-202; four days in culture; Alamar blue assay or automated microscopy; ± SD, three experiments
Experimental: as §1, §2, §3

NB4 APML cell line = assay: Cytotoxicity assay, NB4; format: cell-based, human; settings: Homo sapiens, 96 h, four days in culture, Alamar blue assay or automated microscopy, ± SD, three experiments
Experimental: as §1, §2, §3

HL-60 APML cell line = assay: Cytotoxicity assay, HL-60; format: cell-based, human; settings: Homo sapiens, 96 h; APML cell line HL-60; four days in culture; Alamar blue assay or automated microscopy; ± SD, three experiments
Experimental: as §1, §2, §3

HL-60 RA APML cell line = assay: Cytotoxicity assay, HL-60 RA; format: cell-based, human; settings: Homo sapiens, 96 h; APML cell line HL-60 RA; four days in culture; Alamar blue assay or automated microscopy; ± SD, three experiments
Experimental: as §1, §2, §3

Normal Lymphocytes = assay: Cytotoxicity assay, normal lymphocytes; format: cell-based, human; settings: Homo sapiens, Lymphocyte, 96 h; normal lymphocytes (control for non-leukemia cytotoxicity); four days in culture; ± SD, three experiments
Experimental: (§4) These include B-ALL (Patient #1), relapsed AML (Patient #2), AML/CML (Patient #3), infant ALL (Patient #4), and initial ALL presenting with secondary AML (Patient #5). […] The diluted sample was then layered on a Ficoll-Paque (GE Healthcare, Piscataway, New Jersey) gradient at a 1∶2 ratio of Ficoll to diluted sample. Samples were then centrifuged 1800 rpm for 20 minutes at room temperature. The buffy coat was removed with a pipette and transferred to a new centrifuge tube and diluted with PBS. After an additional centrifugation at 1200 rpm, the white blood cell pellet was washed with PBS and centrifuged one last time. Cells were re-suspended in Opti-MEM and viable cells were counted using trypan blue (Invitrogen, Life Technologies Corporation, Burlington, Ontario) exclusion on a haemocytometer. An identical protocol was followed for the isolation of white blood cells, referred to as “normal lymphocytes” in the following paragraphs, from healthy volunteers. Samples grown in culture for up to six months were cultured in Opti-MEM medium supplemented with 10% heat inactivated FBS, penicillin/streptomycin and 2-mercaptoethanol.
as §2, §3

Bone Marrow Stroma = assay: Cytotoxicity assay, bone marrow stroma; format: cell-based, human; settings: Homo sapiens, 96 h; bone marrow stroma (control for non-leukemia cytotoxicity); four days in culture; ± SD, three experiments
Experimental: as §2, §3

[1] = test system: Patient #1 B-ALL primary leukemia cells; assay: Cytotoxicity assay, primary sample Patient #1; format: cell-based, human; settings: Homo sapiens, 96 h, four days in culture, Alamar blue assay or automated microscopy, one complete study
Experimental: as §4, §2, §3

[2] = test system: Patient #2 relapsed AML primary leukemia cells; assay: Cytotoxicity assay, primary sample Patient #2; format: cell-based, human; settings: Homo sapiens, 96 h, four days in culture, Alamar blue assay or automated microscopy, one complete study
Experimental: as §4, §2, §3

[3] = test system: Patient #3 AML/CML primary leukemia cells; assay: Cytotoxicity assay, primary sample Patient #3; format: cell-based, human; settings: Homo sapiens, 96 h, four days in culture, Alamar blue assay or automated microscopy, one complete study
Experimental: as §4, §2, §3

[4] = test system: Patient #4 infant leukemia primary cells; assay: Cytotoxicity assay, primary sample Patient #4; format: cell-based, human; settings: Homo sapiens, 96 h, four days in culture, Alamar blue assay or automated microscopy, one complete study
Experimental: as §4, §2, §3

[5] = test system: Patient #5 ALL/AML primary leukemia cells; assay: Cytotoxicity assay, primary sample Patient #5; format: cell-based, human; settings: Homo sapiens, 96 h; primary sample; four days in culture; Alamar blue assay or automated microscopy; one complete study; read-out: IC50, Patient #5 ALL/AML
Experimental: as §4, §2, §3

[6] = test system: normal cells versus leukemia cell lines; assay: Comparison of cytotoxicity IC50 values, normal cells versus leukemia cell lines; format: cell-based, human; settings: normal lymphocytes and bone marrow stroma versus leukemia cell lines of Table 2
Experimental: as §2, §3

Aurora-A = test system: Aurora-A; set-up: method as in earlier work; settings: read-out: Targets (IC50 Value): Aurora-A; cited from earlier work
Aurora-C = settings: read-out: Targets (IC50 Value): Aurora-C; literature values; ref [10],[40],[44]–[64] as listed per inhibitor in Table 1; cited from earlier work

Work on Cc1cc(Nc2cc(N3CCN(C)CC3)nc(Sc3ccc(NC(=O)C4CC4)cc3)n2)[nH]n1 [VX-680] yielded an IC50 (C1 B-ALL cell line) of 0.4 nM, an IC50 (SEM B-ALL cell line) of 60 ± 20 nM and an IC50 (B1 B-ALL cell line) of 5 ± 3 nM. It also gave an IC50 (UOCB1 B-ALL cell line) of less than 0.001 nM, an IC50 (Nalm6 B-ALL cell line) of 0.2 nM and an IC50 (KOPN8 B-ALL cell line) of 3 ± 0.5 nM. For the same compound, the IC50 (Molt-3 T-ALL cell line) was 0.9 nM, the IC50 (Molm13 AML cell line) was 4 ± 2 nM and the IC50 (MV4-11 AML cell line) was 2 ± 1 nM. It also gave an IC50 (TIB-202 AML cell line) of 7 ± 3 nM, an IC50 (NB4 APML cell line) of 7 ± 2 nM and an IC50 (HL-60 APML cell line) of 60 ± 5 nM. It also gave an IC50 (HL-60 RA APML cell line) of 1 ± 0.5 nM, an IC50 (Normal Lymphocytes) of 5000 ± 900 nM and an IC50 (Bone Marrow Stroma) greater than 10000 nM. The IC50 [1] was 0.09 nM, the IC50 [2] was 100 nM and the IC50 [3] was 2000 nM. For the same compound, the IC50 [4] was 1000 nM, the IC50 [5] was 0.5 nM and the “IC50 values for the normal cells compared with IC50 values for the leukemia cell lines (potential therapeutic window)” value [6] was “higher than the IC50 values for the leukemia cell lines”. For the same compound, the IC50 (Aurora-A) was […] and the IC50 (Aurora-C) was […].
